Source: US7807381B2, “Methods for assessing CDK5 activation and function” (The Board of Regents of the University of Texas System, priority 2007, dated 2010)

What was measured:
Cdk5 sites = experiment: Quantitative immunoblot of Cdk5-site phosphorylation in acute striatal slices incubated with NMDA; type: cell-based; conditions: NMDA at doses and times indicated, n=3-12
Description: (§1) FIGS. 5A-B—NMDA receptor activation inhibits Cdk5 and the cytoplasmic domain is a Cdk5 inhibitor. (FIG. 5A) Reduction in phosphorylation of three Cdk5 sites by NMDA. Quantitative immunoblot analyses is shown of acute striatal slices incubated with NMDA for the doses and times indicated, n=3-12. *p<0.05; **p<0.01 vs. control, one-way ANOVA with Dunnett's multiple comparison test. (FIG. 5B) Inhibition of Cdk5-dependent phosphorylation of inhibitor-1 by NR2B as assessed by time-course (top), dose-response (middle), and Line-Weaver Burke (bottom) analyses of in vitro phosphorylation reactions conducted in the presence of the indicated inhibitors or control proteins.
To determine if these observations were related, the inventors conducted in vitro phosphorylation reactions with Cdk5 and a test substrate, protein phosphatase inhibitor-1. […] Kinetic analysis confirmed that the NR2B receptor cytoplasmic domain functions as a potent and selective inhibitor of Cdk5 (IC50˜4 μM) and indicated a noncompetitive inhibition mechanism. […] These new data further confirm that NR2B can block Cdk5 activity, and further, that these interactions may be targeted for disruption so that Cdk5 may be uncoupled from NMDA receptors.

Cdk5 = Cdk5 (Homo sapiens, UniProt Q00535); experiment: in vitro phosphorylation reactions with Cdk5 and test substrate protein phosphatase inhibitor-1; type: biochemical; conditions: preliminary data
Sequence of Cdk5 (Q00535 whole entry, species assumed): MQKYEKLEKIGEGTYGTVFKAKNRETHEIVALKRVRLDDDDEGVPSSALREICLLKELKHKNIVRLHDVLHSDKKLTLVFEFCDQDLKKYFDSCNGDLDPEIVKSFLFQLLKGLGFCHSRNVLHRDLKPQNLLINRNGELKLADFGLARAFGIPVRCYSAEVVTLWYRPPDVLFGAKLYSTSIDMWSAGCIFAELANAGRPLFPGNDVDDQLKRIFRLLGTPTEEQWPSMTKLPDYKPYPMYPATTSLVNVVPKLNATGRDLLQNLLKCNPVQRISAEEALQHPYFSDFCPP
Description: as §1
To determine if these observations were related, the inventors conducted in vitro phosphorylation reactions with Cdk5 and a test substrate, protein phosphatase inhibitor-1. […] Kinetic analysis confirmed that the NR2B receptor cytoplasmic domain functions as a potent and selective inhibitor of Cdk5 (IC50˜4 μM) and indicated a noncompetitive inhibition mechanism. […]
Cdk5 phosphorylation activity assays may generally comprise ^32P-incoporation into substrates as determined by phosphorimager analysis. Alternatively, phosphorylation may be detected by either Western blot or ELISA using a control Cdk5 substrate and a phosphorylation state-specific antibody to a Cdk5 phosphorylation site on the substrate. […]

Row | Compound | phosphorylation of three Cdk5 sites (Cdk5 sites) | inhibition of Cdk5 (qualitative) (Cdk5)
1 | CN[C@H](CC(=O)O)C(=O)O [NMDA] | Reduction | 
2 | peptide encompassing amino acid residues 1101-1130 of NR2B: a peptide encompassing amino acid residues 1101-1130 of NR2B (EFDEIELAYRRRPPRSPDHKRYFRDKEGLR; UniProt Q13224 1101-1130, looked up, fragment) |  | effective inhibitor
